Where “and” joins values, the source holds several entries; their conditions need not be identical. Equal entries are not always repeated.
Tested on: HSSY-II tumor spheroid viability
Assay: Anticancer human tumor HSSY-II cell line growth inhibition;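 further: spheroids exposed to compounds for seven days before reading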;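 on viability, T/C: percent of DMSO vehicle control viability so 100% = untreated level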
Settings: spheroids with HUVEC and MSC; for viability, T/C: stronger effect = lower value
Description: Multicellular complex tumor spheroid response to DNA repair inhibitors in combination with DNA-damaging drugs
This study explores the anticancer activities of DNA-damaging drugs and inhibitors of DNA damage repair, both as single agents and in combinations. Complex tumor spheroids comprised of malignant cells, endothelial cells and mesenchymal stem cells served as an in vitro model for human solid tumors. This model system incorporates physiologically relevant features and patient-derived or established malignant cell lines with clinically relevant genetic alterations from many tumor types. Twenty-six patient-derived or established malignant cell lines were evaluated representing sarcoma, melanoma, small cell lung cancer (SCLC), non-small cell lung cancer (NSCLC), as well as bladder, ovarian and pancreatic cancers. The concentration ranges selected for each drug and investigational agent were based upon clinically achievable concentrations if the clinical Cmax of the agent was known.
Compounds. The drugs and compounds olaparib (NSC753686), talazoparib (NSC767125), berzosertib (NSC777718), elimusertib (NSC800525), nedisertib (NSC802822), VX-984 (NSC792969), AZD-1390 (NSC803789), temozolomide (NSC362856), topotecan (NSC609699), trabectedin (NSC813783), staurosporine (NSC755774), and gemcitabine (NSC613327) were obtained from the National Cancer Institute (NCI) Developmental Therapeutics Program Chemical Repository. The FDA-approved anticancer drug set is available from the Developmental Therapeutics Program at https://dtp.cancer.gov/organization/dscb/obtaining/available_plates.htm. […] The stock solutions were prepared in dimethyl sulfoxide (DMSO, Sigma-Aldrich, St. Louis, MO, cat. D2650) at 400-fold the tested concentration and stored at -70 degrees C. Prior to their use, the stock solutions were diluted in fresh medium and the final DMSO concentration in the assay was 0.25% (v/v). All drugs and investigational agents were tested over a range starting from a high concentration at or near the clinical Cmax and decreasing in half-log increments. If the clinical Cmax for an agent had not been determined, the highest concentration tested was 10 microM.
Cell Lines. The patient-derived cancer cell (PDC) lines: 156681-154-R-J1-PDC, 283228-195-R-J1-PDC, 287954-098-R-J1-PDC, 292921-168-R-J2-PDC, 349418-098-R-PDC, 425362-245-T-J1-PDC, 556581-035-R-J1-PDC, and BL0293-F563-PDC were received from the NCI Patient-Derived Models Repository (PDMR, https://pdmr.cancer.gov). The established cell lines HS-SY-2 (RRID:CVCL_8719), MPNST, and SYO-1 (RRID:CVCL_7146) were obtained from the Sloan Kettering Institute. The alveolar soft parts sarcoma cell line ASPS-1 (RRID:CVCL_S738) was established at the NCI and grown from internal seed stocks. The following established cell lines were purchased from the American Type Culture Collection (ATCC, Manassas, VA): G-401 (ATCC, cat. CRL-1441, RRID:CVCL_0270), SW982 (ATCC, cat. HTB-93, RRID:CVCL_1734), VA-ES-BJ (ATCC, cat. CRL-2138, RRID:CVCL_1785), NCI-H719 (ATCC, cat. CRL-5837, RRID:CVCL_1582), NCI-H196 (ATCC, cat. CRL-5823, RRID:CVCL_1509), NCI-H841 (ATCC, cat. CRL-5845, RRID:CVCL_1595), NCI-H1618 (ATCC, cat. CRL-5879, RRID:CVCL_1480), NCI-H1876 (ATCC, cat. CRL-5902, RRID:CVCL_1503), DMS 114 (ATCC, cat. CRL-2066; RRID:CVCL_1174), NCI-H211 (ATCC, cat. CRL-5824; RRID:CVCL_1529), and SW 1271 (ATCC, cat. CRL-2177, RRID:CVCL_1716). The small cell lung cancer cell line COR-L88 was purchased from Sigma-Aldrich (cat. 92031917-1VL, RRID:CVCL_1141). The non-small cell lung cancer cell lines NCI-H226 (RRID:CVCL_1544) and NCI-H322M (RRID:CVCL_1557) were established at the NCI and grown from internal seed stocks. Pooled donor human umbilical vein endothelial cells (HUVEC, Lonza, cat. CC-2519) and human mesenchymal stem cells (hMSC, Lonza, cat. PT-2501) were purchased from Lonza (Walkersville, MD).
Cell Culture. All cells were maintained in an incubator at 37 degrees C and 5% CO2 with 95% humidity. […]

[1] = compound alone, run of 12/02/2019
[2] = compound alone, run of 12/12/2019

CC(C)n1c(=O)n(C)c2cnc3cc(F)c(-c4ccc(OCCCN5CCCCC5)nc4)cc3c21
viability, T/C (compound 0.0316 µM): 139% and 106% and 97.2%
viability, T/C (compound 0.1 µM): 129% and 102% and 101%
viability, T/C (compound 0.316 µM): 118% and 97.2% and 96.5%
viability, T/C (compound 1 µM): 126% and 86.8% and 85.9%
viability, T/C (compound 3.16 µM): 113% and 76.4% and 76.1%
viability, T/C (compound 10 µM): 53.6% and 35.9% and 32.6%
IC50 (curve of compound): > 10 µM and 6.62 µM and 6.22 µM

CC1COCCN1c1cc(-c2ccnn2C)c2ccnc(-c3ccn[nH]3)c2n1 (stereo not given)
viability, T/C (compound 0.0316 µM): 13.6% and 27.8% and 22.3%
viability, T/C (compound 0.1 µM): 6.39% and 6.26% and 6.5%
viability, T/C (compound 0.316 µM): 4.82% and 2.71% and 2.97%
viability, T/C (compound 1 µM): 4.16% and 1.96% and 2.24%
viability, T/C (compound 3.16 µM): 4.41% and 2.11% and 2.4%
viability, T/C (compound 10 µM): 6.25% and 2.76% and 2.66%
IC50 (curve of compound): < 0.0316 µM

CC[C@@]1(O)C(=O)OCc2c1cc1n(c2=O)Cc2cc3c(CN(C)C)c(O)ccc3nc2-1
viability, T/C (compound 0.003 µM): 85.6% [middle of 10 runs]
viability, T/C (compound 0.03 µM): 9.85% [middle of 10 runs]
viability, T/C (compound 0.0949 µM): 8.03% [middle of 9 runs]
viability, T/C (compound 0.3 µM): 5.25% [middle of 10 runs]
IC50 [1]: 8.2 nM [middle of 5 runs]
IC50 [2]: 11.6 nM [middle of 5 runs]

CNCc1ccc(-c2cc(-c3nc(-c4ccc(S(=O)(=O)C(C)C)cc4)cnc3N)on2)cc1
viability, T/C (compound 0.00949 µM): 97.3% and 98% and 97.5%
viability, T/C (compound 0.03 µM): 74.1% and 79.3% and 68.2%
viability, T/C (compound 0.0949 µM): 8.25% and 5.12% and 7.65%
viability, T/C (compound 0.3 µM): 4.73% and 4.15% and 5.89%
viability, T/C (compound 0.949 µM): 1.97% and 2.75% and 1.7%
viability, T/C (compound 3 µM): 0.23% (2×) and 0.46%
IC50 (curve of compound): 0.0458 µM and 0.0473 µM and 0.0424 µM

COc1cc(C)[nH]c(=O)c1CN1CCc2c(Cl)cc(C(OC)C3COC3)c(Cl)c2C1=O (stereo not given)
viability, T/C (compound 0.0316 µM): 79.4% and 99.8% and 97.9%
viability, T/C (compound 0.1 µM): 115% and 84.8% and 86.5%
viability, T/C (compound 0.316 µM): 99.7% and 76.2% and 78.9%
viability, T/C (compound 1 µM): 93.8% and 63.5% and 68.3%
viability, T/C (compound 3.16 µM): 94.8% and 60.8% and 62.7%
viability, T/C (compound 10 µM): 91.7% and 62.6% and 64.4%
IC50 (curve of compound): > 10 µM

COc1cc2c(cc1O)CCNC21CSC2c3c(OC(C)=O)c(C)c4c(c3C(COC1=O)N1C(O)C3Cc5cc(C)c(OC)c(O)c5C(C21)N3C)OCO4 (stereo not given)
viability, T/C (compound 0.0003 µM): 16.7% [middle of 10 runs]
viability, T/C (compound 0.000949 µM): 3.25% [middle of 9 runs]
viability, T/C (compound 0.003 µM): 0.2% [middle of 7 runs]
IC50 [2]: 0.187 nM [middle of 10 runs]

COc1ccc([C@@H](O)c2cc(-c3ncnc4cc(N5CCOCC5)ccc34)c(F)cc2Cl)nn1
viability, T/C (compound 0.0316 µM): 99% (2×) and 100%
viability, T/C (compound 0.1 µM): 108% and 97.5% and 98%
viability, T/C (compound 0.316 µM): 98.5% and 89.3% and 86.9%
viability, T/C (compound 1 µM): 67.9% and 60.5% and 66.9%
viability, T/C (compound 3.16 µM): 40.8% and 40.2% and 43.4%
viability, T/C (compound 10 µM): 15.2% and 20.4% and 21.2%
IC50 (curve of compound): 2.1 µM and 1.83 µM and 2.26 µM

Cc1cc(C)c(CNC(=O)c2cc(-c3ccc(CN4CCOCC4)cc3)cc3c2cnn3C2CCCC2)c(=O)[nH]1
viability, T/C (compound 0.0316 µM): 109% and 94.6% and 92.3%
viability, T/C (compound 0.1 µM): 107% and 99.1% and 103%
viability, T/C (compound 0.316 µM): 107% and 106% and 102%
viability, T/C (compound 1 µM): 107% and 102% and 91.9%
viability, T/C (compound 3.16 µM): 104% and 95.3% and 96.5%
viability, T/C (compound 10 µM): 64.3% and 69.4% and 77.4%
IC50 (curve of compound): > 10 µM

Cc1sc2c(c1C)C(c1ccc(Cl)cc1)=NC(CC(=O)Nc1ccc(O)cc1)c1nnc(C)n1-2 (stereo not given)
viability, T/C (compound 0.00949 µM): 103% and 96.2% and 86.5%
viability, T/C (compound 0.03 µM): 91.5% and 82% and 79.4%
viability, T/C (compound 0.0949 µM): 71.5% and 60.6% and 61.9%
viability, T/C (compound 0.3 µM): 30.2% and 39.3% and 30.7%
viability, T/C (compound 0.949 µM): 18.2% and 16.5% and 16.8%
viability, T/C (compound 3 µM): 11.9% and 11.7% and 9.97%
IC50 (curve of compound): 0.173 µM and 0.161 µM and 0.146 µM

Cn1ncnc1[C@H]1c2n[nH]c(=O)c3cc(F)cc(c23)N[C@@H]1c1ccc(F)cc1
viability, T/C (compound 0.00949 µM): 76.5% and 87.8% and 78.8%
viability, T/C (compound 0.03 µM): 64.8% and 81.5% and 64.3%
viability, T/C (compound 0.0949 µM): 40.7% and 58.8% and 46.4%
viability, T/C (compound 0.3 µM): 15.3% and 25.6% and 20.6%
viability, T/C (compound 0.949 µM): 6.4% and 9.46% and 9.61%
viability, T/C (compound 3 µM): 4.87% and 8.07% and 6.62%
IC50 (curve of compound): 0.0605 µM and 0.129 µM and 0.0704 µM

Cn1nnc2c(C(N)=O)ncn2c1=O
viability, T/C (compound 1 µM): 100% [middle of 10 runs]
viability, T/C (compound 3.16 µM): 104% [middle of 10 runs]
viability, T/C (compound 10 µM): 102% [middle of 10 runs]
viability, T/C (compound 31.6 µM): 103% [middle of 10 runs]
viability, T/C (compound 100 µM): 93.4% [middle of 10 runs]
IC50 [1]: > 100 µM

O=C(c1cc(Cc2n[nH]c(=O)c3ccccc23)ccc1F)N1CCN(C(=O)C2CC2)CC1
viability, T/C (compound 0.0949 µM): 99.1% and 104% and 93.2%
viability, T/C (compound 0.3 µM): 91.7% and 90.6% and 98.3%
viability, T/C (compound 0.949 µM): 82.3% and 86.8% and 90.7%
viability, T/C (compound 3 µM): 70.6% and 67.4% and 65.8%
viability, T/C (compound 9.49 µM): 30.7% and 11.5% and 17.9%
IC50 (curve of compound): 6.16 µM and 4.28 µM and 4.38 µM

[2H]c1nc(C)nc([2H])c1-c1cc(NC[C@@H](C)c2cccc3c(C(=O)NC)ccnc23)ncn1
viability, T/C (compound 0.0316 µM): 95.9% and 98.9% and 105%
viability, T/C (compound 0.1 µM): 98.9% and 99.4% and 98.4%
viability, T/C (compound 0.316 µM): 95.8% and 98.1% and 101%
viability, T/C (compound 1 µM): 99.1% and 97.4% and 99.5%
viability, T/C (compound 3.16 µM): 99% and 92.2% and 97%
viability, T/C (compound 10 µM): 93.9% and 84.6% and 93%
IC50 (curve of compound): > 10 µM
